{"source": "ChEMBL document CHEMBL1152289", "about": "“Antithyroid drug carbimazole and its analogues: synthesis and inhibition of peroxidase-catalyzed iodination of L-tyrosine” (J Med Chem, 2008)", "molecular_target": "Lactoperoxidase (Homo sapiens, UniProt P22079)", "sequence (P22079 whole entry)": "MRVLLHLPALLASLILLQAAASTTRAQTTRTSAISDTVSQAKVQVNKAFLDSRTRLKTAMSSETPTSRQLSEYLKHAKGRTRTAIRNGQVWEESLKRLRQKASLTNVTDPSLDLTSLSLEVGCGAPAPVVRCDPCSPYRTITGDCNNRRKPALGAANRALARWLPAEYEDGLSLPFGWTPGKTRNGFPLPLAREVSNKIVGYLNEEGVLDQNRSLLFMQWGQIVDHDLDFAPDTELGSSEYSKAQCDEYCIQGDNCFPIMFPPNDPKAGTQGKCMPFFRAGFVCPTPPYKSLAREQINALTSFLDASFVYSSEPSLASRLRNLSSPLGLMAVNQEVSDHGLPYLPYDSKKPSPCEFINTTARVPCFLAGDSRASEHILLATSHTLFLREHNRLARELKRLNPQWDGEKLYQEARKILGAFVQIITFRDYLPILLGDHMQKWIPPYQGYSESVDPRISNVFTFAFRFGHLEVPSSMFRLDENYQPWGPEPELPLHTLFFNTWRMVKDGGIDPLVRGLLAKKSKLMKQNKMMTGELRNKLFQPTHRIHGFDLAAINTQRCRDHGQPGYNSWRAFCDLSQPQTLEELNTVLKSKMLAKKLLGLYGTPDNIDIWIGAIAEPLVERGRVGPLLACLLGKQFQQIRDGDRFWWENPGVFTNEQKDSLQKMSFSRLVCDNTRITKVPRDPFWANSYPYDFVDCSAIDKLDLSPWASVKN", "assay": "Inhibition of lactoperoxidase-catalyzed iodination of L-tyrosine assessed as 3,5-diiodo-L-tyrosine formation by HPLC"}
{"compound": "Cn1cc[nH]c1=S", "note": "[METHIMAZOLE]", "values": [{"measurement": "IC50", "value": 11.8, "unit": "µM"}]}
{"compound": "CCOC(=O)n1ccn(CC)c1=[Se]", "values": [{"measurement": "IC50", "value": 21.3, "unit": "µM"}]}
{"compound": "CCn1ccn(C(=O)OC)c1=S", "values": [{"measurement": "IC50", "value": 19.6, "unit": "µM"}]}
{"compound": "COC(=O)n1ccn(C)c1=[Se]", "values": [{"measurement": "IC50", "value": 19.7, "unit": "µM"}]}
{"compound": "CCn1ccn(C(=O)OC)c1=[Se]", "values": [{"measurement": "IC50", "value": 25.3, "unit": "µM"}]}
{"compound": "COC(=O)n1ccn(C)c1=S", "values": [{"measurement": "IC50", "value": 10.7, "unit": "µM"}]}
{"compound": "CCOC(=O)n1ccn(C)c1=[Se]", "values": [{"measurement": "IC50", "value": 10.1, "unit": "µM"}]}
{"compound": "CCOC(=O)n1ccn(C)c1=S", "note": "[CARBIMAZOLE]", "values": [{"measurement": "IC50", "value": 10.4, "unit": "µM"}]}
{"compound": "CCOC(=O)n1ccn(CC)c1=S", "values": [{"measurement": "IC50", "value": 20.5, "unit": "µM"}]}
